Laboratory results as given in patent US12162892B2, “CD16a binding agents and uses thereof” (KLEO PHARMACEUTICALS, INC., priority 2018, dated 2024).
Values joined by “and” are separate entries in the source; they are usually repeats but may differ in a detail not shown here. Equal entries are not always repeated.

Key:
CD16a158V [1] = target: T1, CD16a158V (Homo sapiens, UniProt P08637, F176V); test: Biotinylated Ligand ELISA Assay; assay type: binding; details: Biotinylated CD16a protein at 10 nM
T1 sequence (P08637 17-208 F176V): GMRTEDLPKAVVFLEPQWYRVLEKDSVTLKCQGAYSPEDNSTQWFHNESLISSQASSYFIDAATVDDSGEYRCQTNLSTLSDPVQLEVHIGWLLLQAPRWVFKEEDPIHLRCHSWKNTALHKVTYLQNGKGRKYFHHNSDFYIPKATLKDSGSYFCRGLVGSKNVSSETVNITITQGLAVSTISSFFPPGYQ
Method: (§1) Coat ELISA plates (Costar 3922) using Neutravidin (Thermo 31000) at 5 μg/ml (100 μl/well) for 1 hour at 37° C. Plates were washed 4 times with PBST (PBS, 0.05% Tween 20-200 μl, 1 minute/wash) then blocked using 200 μl 5% bovine serum albumin (BSA, Heat Shock, Fraction V-American Bio AB01088-00100) in PBST for 2 hours at 25° C. with moderate shaking. BSA was removed and plates were washed. Biotinylated ligands diluted in PBSTB (PBST+0.1% BSA) were then added (100 μl/well) and incubated for 1 hour at 25° C. with gentle shaking. Ligands were removed and plates were washed. Any remaining unoccupied neutravidin binding sites were blocked by adding 100 μM Biotin (Fisher BP232-1) (100 μl/well) and incubated for 1 hour at 25° C. with gentle shaking. Plates were then washed. […] Protein was removed and plates were washed. Streptavidin-HRP (Invitrogen 434323) diluted 1:5000 in PBSTB was added (100 μl/well) and incubated for 1 hour at 25° C. with gentle shaking. Wash plates. Substrate (Super Signal ELISA Pico Chemiluminescent Substrate-Thermo 37069) was added (100 μl/well) and plates were incubated for 5 minutes at 25° C. with gentle shaking. Luminescence was then measured on the Biotek Synergy H1 microplate reader.

[2] = system: CD16a negative THP1 cells; test: ADCP assay using THP-1 cells; assay type: cell-based; details: beads loaded with test compound at 50 uM; 37C for 18 hrs
Method: (§2) Biotinylated fluorescent beads (Invitrogen, cat #P35372) were thoroughly mixed by vortexing for 1 min. Ten microliters of supplied bead suspension per treatment type were dispensed in Eppendorf tubes, and washed with 1 ml PBS […], then re-suspended in 500 uL of 1% BSA in PBS. Test compounds were added to bead suspensions to a final concentration of 50 uM, and biotinylated human IgG whole molecule (Rockland 009-0602) final concentration of 20 ug/mL.
(§3) Tubes were incubated at room temperature for 1 hr on a rocking platform.
(§4) Following incubation, beads were pelleted in a microcentrifuge at 12,000 g for 5 minutes at room temperature. Supernatants were carefully aspirated and beads were washed 5 times by resuspending in 1 ml of PBS 1% BSA, and centrifuging as described above. Finally, beads were resuspended in 500 ul of PBS 1% BSA and used in ADCP assay.
(§5) Monocytes or THP-1 cells (TIB-202 ATCC) were seeded into 96 well round bottom 96 well plates at the density of 10^5 cells per well in 200 ul, and 10 uL of fluorescent bead suspension prepared as described above was added to each well. Well contents were mixed by pipetting up and down using a multichannel pipet, and plates were incubated at 37C for 18 hrs. After incubation, well contents were transferred into flat bottom black 96 well plates (Costar #3358) and centrifuged for 2 minutes at 300 g to allow for better visualization of the cells. Images were taken using Zoe fluorescent cell imager (Biorad).

CD16a158F [3] = target: T2, CD16a158F (Homo sapiens, UniProt P08637); test: Biotinylated Ligand ELISA Assay; assay type: binding; parameters: purchased Acro Biosystems CDA-H82E8; details: Biotinylated CD16a protein at 10 nM
T2 sequence (P08637 17-208 limits assumed): as the sequence (P08637 17-208 F176V) above, with V160F counted along it
Method: as §1

CD16a158V [4] = target: T1, CD16a158V; test: Microscale Thermophoresis; assay type: binding; details: read-out: MST-CD16a158V KD
Method: Target proteins (poly-histidine tagged, 600 nM) were fluorescently labeled combination with an equal volume of dye (200 nM, His-Tag labeling kit RED-tris-NTA NanoTemper: MO-L008) PBST. The mixture rotated in the dark for 45 min before being spun down at 12000 rpm for 15 min to remove uncomplexed material. The fluorescence of the removed supernatant was adjusted to for a test concentration of 40-80 nM (2× the final measured). Test ligands were prepared across a 12-point dilution series in a 96-well PCR plate at a volume of 20 uL at 2× the concentration desired for testing (0.2% BSA in PBST). The dilution series was then combined with an equal volume of the labeled target at 2× the concentration desired for testing. Capillaries were added to the wells of the combined target/ligand complex and measured by MST. Measurements were taken using a Nanotemper Monolith NT.115, and the data was analyzed using NanoTemper MO.Control software.

primary monocytes = test: ADCP assay using fresh primary monocytes; assay type: cell-based, human; details: beads loaded with test compound at 50 uM; 37C for 18 hrs
Method: as §2, §3, §4
PBMC, freshly isolated from whole blood (Bioreclamation IVT0) using Ficoll-Paque density centrifugation were resuspended in serum-free, supplemented RPMI at 2×10^6 cells/mL.
Ten milliliters of the resulting cell suspension was seeded into 75-cm^2 tissue culture flask (Denville Scientific TC9341) and incubated 2-3 hr at 37° C. 5% CO2 to allow cell adhesion. Following incubation, media was decanted and surface of the flask was carefully washed twice, each time with 10 ml serum-free, supplemented RPMI to remove any residual non-adherent cells. To remove adherent cells, 10 mL of ice-cold 2.5 mM EDTA/PBS solution was added for 10 min on ice. Cells were transferred to a 15-ml conical tube and centrifuge 10 min at 300×g, room temperature, to remove the EDTA/PBS solution. Monocytes were then resuspended in RPMI 10% FCS at 5×10^5 cells/mL to be used in ADCP assay. Monocyte purity was assessed by staining cells with antibodies to human CD3 FITC (Biolegend 300306), CD19 PeCy7 (Biolegend 302216), CD14 BV421 (BD Biosciences, 565283), and CD16 (Biolegend 302046).
as §5

CD16a158F [5] = target: T2, CD16a158F; test: Biotin ELISA, interaction with various receptors (Example 55); assay type: binding; details: three replicate values per compound
Method: as §1
(§6) Using similar methods as Examples 47 or 53, interactions with a number of receptors were measured. In some embodiments, “stock” is antibody only, and “control” is an antibody that went through the same procedure except using DMSO only as opposed to a compound. When contacted with targeting moieties such as antibodies in the Examples, compounds, e.g., I-95, I-96, etc. can react through their reactive groups

CD32b = target: T3, CD32b (Homo sapiens, UniProt P31994); test: as above; assay type: binding; details: three replicate values per compound
T3 sequence (P31994 43-310): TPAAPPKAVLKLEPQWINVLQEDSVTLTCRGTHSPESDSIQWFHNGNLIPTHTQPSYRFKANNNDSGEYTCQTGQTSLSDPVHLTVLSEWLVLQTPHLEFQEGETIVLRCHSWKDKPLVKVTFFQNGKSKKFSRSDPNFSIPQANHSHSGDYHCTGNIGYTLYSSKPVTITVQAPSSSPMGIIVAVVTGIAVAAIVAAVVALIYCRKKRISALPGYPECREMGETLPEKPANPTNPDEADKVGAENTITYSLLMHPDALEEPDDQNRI
Method: as §1, §6

CD16a158V [6] = target: T1, CD16a158V; test: as above; assay type: binding; details: three replicate values per compound
Method: as §1, §6

CD3ed = CD3ed (Homo sapiens, UniProt P04234+P07766); test: as above; assay type: binding; details: three replicate values per compound
Sequence of CD3ed (P07766 23-126 limits assumed): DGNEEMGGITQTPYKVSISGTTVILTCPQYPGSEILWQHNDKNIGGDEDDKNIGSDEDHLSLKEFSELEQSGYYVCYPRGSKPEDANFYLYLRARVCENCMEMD
Sequence of CD3ed (P04234 22-105 limits assumed): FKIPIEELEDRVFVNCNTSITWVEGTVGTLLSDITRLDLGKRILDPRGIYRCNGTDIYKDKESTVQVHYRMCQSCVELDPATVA
Method: as §1, §6

CD32a H167 = target: T4, CD32a H167 (Homo sapiens, UniProt P12318); test: as above; assay type: binding; details: three replicate values per compound
T4 sequence (P12318 36-218 limits assumed): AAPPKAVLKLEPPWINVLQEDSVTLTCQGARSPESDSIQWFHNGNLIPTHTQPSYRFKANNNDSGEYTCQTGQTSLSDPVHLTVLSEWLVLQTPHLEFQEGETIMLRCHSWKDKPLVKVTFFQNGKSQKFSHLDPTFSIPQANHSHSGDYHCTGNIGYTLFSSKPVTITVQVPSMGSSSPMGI
Method: as §1, §6

CD32a-R167 = test: as above; assay type: binding; details: three replicate values per compound
Method: as §1, §6

CD64 = CD64 (Homo sapiens, UniProt P12314); test: as above; assay type: binding; details: three replicate values per compound
Sequence of CD64 (P12314 16-374): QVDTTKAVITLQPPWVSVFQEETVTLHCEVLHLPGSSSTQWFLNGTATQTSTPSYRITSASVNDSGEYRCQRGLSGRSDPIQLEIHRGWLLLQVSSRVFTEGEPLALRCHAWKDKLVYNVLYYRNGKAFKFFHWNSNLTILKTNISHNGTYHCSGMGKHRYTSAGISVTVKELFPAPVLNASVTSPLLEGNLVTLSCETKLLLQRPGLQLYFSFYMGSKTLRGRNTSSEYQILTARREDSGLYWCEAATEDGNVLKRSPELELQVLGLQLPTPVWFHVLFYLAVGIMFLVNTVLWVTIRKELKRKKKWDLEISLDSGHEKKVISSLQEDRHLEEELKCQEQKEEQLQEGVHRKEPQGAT
Method: as §1, §6

[7] = Biotin ELISA, No Protein (Example 55); assay type: binding; details: three replicate values per compound
Method: as §1, §6

| Structure (SMILES) | Biotinylated Ligand ELISA-CD16a158V Binding (RLU) (CD16a158V [1]) | ACDP (CD16a negative THP1 cells)-normalized phagocytosis score [2] | Biotinylated Ligand ELISA-CD16a158F Binding (RLU) (CD16a158F [3]) | Kd (CD16a158V [4]) [nM] | ACDP (primary monocytes)-normalized phagocytosis score (primary monocytes) | Biotin ELISA Results CD16a-158F (CD16a158F [5]) | Biotin ELISA Results CD32b (CD32b) | Biotin ELISA Results CD16a-158V (CD16a158V [6]) | Biotin ELISA Results CD3ed (CD3ed) | Biotin ELISA Results CD32a-H167 (CD32a H167) | Biotin ELISA Results CD32a-R167 (CD32a-R167) | Biotin ELISA Results CD64 (CD64) | Biotin ELISA Results No Protein [7] |
| --- | --- | --- | --- | --- | --- | --- | --- | --- | --- | --- | --- | --- | --- |
| COc1ccc(OC)c(N2CC(C(=O)Nc3ccc(-c4cn(CCOCCOCCOCCOCCOCCOCCOCCOCCNC(=O)CCCC[C@@H]5SC[C@@H]6NC(=O)N[C@@H]65)nn4)cc3)CC2=O)c1 (some centres unmarked) [Compound I-39] | C (a relative luminescence value (RLU) of 1,000-10,000) | B (a normalized phagocytosis score of 1.5-2.0) | C (a relative luminescence value (RLU) of 1,000-10,000) | 100 to 500 | B (a normalized phagocytosis score of 1.5-2.0) | – | – | – | – | – | – | – | – |
| O=C(CCCC[C@@H]1SC[C@@H]2NC(=O)N[C@@H]21)NCCOCCOCCOCCOCCOCCOCCOCCOCCNC(=O)c1cnc(N2CCC3(CC2)NC(=O)C(Nc2ccccc2)C3=O)nc1 (some centres unmarked) [Compound I-21] | A (a relative luminescence value (RLU) of >100,000) | D (a normalized phagocytosis score of 0.5-1.0) | A (a relative luminescence value (RLU) of >100,000) | – | C (a normalized phagocytosis score of 1.0-1.5) | 6775 and 6468 and 5831 | 14249 and 14080 and 11349 | 5747 and 5338 and 6303 | 8285 and 6369 and 7518 | 15126 and 14461 and 15658 | 12004 and 10942 and 9796 | 98211 and 69008 and 131784 | 7902 and 6992 and 7029 |
| O=C(CCCC[C@@H]1SC[C@@H]2NC(=O)N[C@@H]21)NCCOCCOCCOCCOCCOCCOCCOCCOCCn1cc(-c2ccc(NC(=O)N3CCC4(CC3)NC(=O)N(c3ccccc3)C4=O)cc2)nn1 [Compound I-18, N-{4-[1-(26-{5-[(3aS,4S,6aR)-2-oxo-hexahydro-1H-thieno[3,4-d]imidazol-4-yl]pentanamido}-3,6,9,12,15,18,21,24-octaoxahexacosan-1-yl)-1H-1,2,3-triazol-4-yl]phenyl}-2,4-dioxo-3-phenyl-1,3,8-triazaspiro[4.5]decane-8-carboxamide] | D (a relative luminescence value (RLU) of 1-1,000) | B (a normalized phagocytosis score of 1.5-2.0) | D (a relative luminescence value (RLU) of 1-1,000) | – | – | – | – | – | – | – | – | – | – |
| O=C(CCCC[C@@H]1SC[C@@H]2NC(=O)N[C@@H]21)NCCOCCOCCOCCOCCOCCOCCOCCOCCn1cc(-c2ccc(NC(=O)N3CCC4(CC3)NC(=O)N(Cc3ccccc3)C4=O)cc2)nn1 [Compound I-17, N-{4-[1-(26-{5-[(3aS,4S,6aR)-2-oxo-hexahydro-1H-thieno[3,4-d]imidazol-4-yl]pentanamido}-3,6,9,12,15,18,21,24-octaoxahexacosan-1-yl)-1H-1,2,3-triazol-4-yl]phenyl}-3-benzyl-2,4-dioxo-1,3,8-triazaspiro[4.5]decane-8-carboxamide] | D (a relative luminescence value (RLU) of 1-1,000) | B (a normalized phagocytosis score of 1.5-2.0) | D (a relative luminescence value (RLU) of 1-1,000) | – | C (a normalized phagocytosis score of 1.0-1.5) | 122 and 5830 and 2636 | 2439 and 955 and 1191 | 443 and 2316 and 1591 | 1412 and 1083 and 1250 | 1642 and 1978 and 2246 | 11182 and 5954 and 10675 | 44623 and 46028 and 52372 | −236 and −272 and 237 |
